In patent publication US20090233966A1, “Analogues of the Azinomycins as Anti-Tumour Agents and as Prodrugs” (School of Pharmacy, University of London, priority 2005, published 2009):
Where two headings read alike, the source gives them in different places.

How the values were obtained:
SNB-75 = assay: NCI 60 cell panel growth inhibition; type: cell-based; settings: Homo sapiens, CNS, read-out: anti-tumour activity GI50
Source text: (§1) Examples 6 and 7 make use of the NCl 60 cell panel. This is an in vitro cell line screening project providing direct support to the National Cancer Institute's USA Developmental Therapeutic Programme for anti cancer discovery. The methodolgy for the cell line's operation is described by Boyd et al in Drug Development Research 1995, 34, 91-109.

HCT-15 = assay: NCI 60 cell panel growth inhibition; type: cell-based; settings: Homo sapiens, COLON, read-out: anti-tumour activity GI50
Source text: as §1

MOLT-4 = assay: NCI 60 cell panel growth inhibition; type: cell-based, human; settings: Leukemia, read-out: anti-tumour activity GI50
Source text: as §1

HT29 = assay: NCI 60 cell panel growth inhibition; type: cell-based, human; settings: read-out: anti-tumour activity GI50
Source text: as §1

SR = assay: NCI 60 cell panel growth inhibition; type: cell-based, human; settings: Leukemia, read-out: anti-tumour activity GI50
Source text: as §1

SN12C = assay: NCI 60 cell panel growth inhibition; type: cell-based, human; settings: RENAL, read-out: anti-tumour activity GI50
Source text: as §1

HCT-116 = assay: NCI 60 cell panel growth inhibition; type: cell-based, human; settings: COLON, read-out: anti-tumour activity GI50
Source text: as §1

NCI/ADRRES = assay: NCI 60 cell panel growth inhibition; type: cell-based, human; settings: BREAST, read-out: anti-tumour activity GI50
Source text: as §1

OVCAR-5 = assay: NCI 60 cell panel growth inhibition; type: cell-based, human; settings: OVAR, read-out: anti-tumour activity GI50
Source text: as §1

SK-MEL-5 = assay: NCI 60 cell panel growth inhibition; type: cell-based, human; settings: MELAN, read-out: anti-tumour activity GI50
Source text: as §1

435 = assay: NCI 60 cell panel growth inhibition; type: cell-based, human; settings: BREAST, read-out: anti-tumour activity GI50
Source text: as §1

[1] = system: linear double stranded plasmid pUC18 DNA; assay: DNA crosslinking; type: biochemical; settings: for EC50: read-out: CR50 (concentration at which 50% of the duplex is crosslinked)
Experimental: Plasmid DNA pUC 18 was linearised by digestion with Hind III. The linear DNA was then dephosphorylated with BAP and ^32P-radiolabelled on the 5′-end. The DNA was then purified by EtOH precipitation to remove unincorporated γ-^32P ATP and the DNA resuspended in sterile double distilled H2O. To each reaction sample was added ^32P-end labelled DNA and drug at the appropriate concentration. Following incubation at 37° C. for the required time, the reaction was terminated by the addition of Stop Solution Buffer. The DNA-drug adduct was EtOH precipitated and dried by lyophilisation. Each dried DNA sample including an untreated DNA single strand as a control was denatured by resuspending in alkali denaturing buffer. The double stranded control DNA was then dissolved in sucrose loading buffer and the samples loaded and electrophoresed on a 20 cm long 0.8% horizontal agarose gel submerged in 1×TAE buffer at 40 V for 16 h. Gels were then dried and autoradiographed
Compound 20 which consists of both the epoxide and mustard functionality was tested at concentrations between 0.1 and 50 μM at 1 h, 2 h and 3 h intervals. […] Crosslink formation starts at concentrations as low as 0.1 μM and reaches 100% crosslinking at −10 μM. After incubation for an hour the CR50 (concentration at which 50% of the duplex is crosslinked) was determined to be 3.1 μM. The percentage of crosslinked DNA was determined from autoradiograph densitometry.

Structure (SMILES): C=C(C)[C@H](OC(=O)c1cc(OC)cc2c(C)cccc12)C(=O)NCCN1CCCC(Cl)C1 (stereo partly drawn) [Compound 21]
- GI50 (SNB-75): 1.2 µM
- GI50 (HCT-15): 0.049 µM
- GI50 (MOLT-4; Homo sapiens): 3.3 µM
- GI50 (HT29; Homo sapiens, HT-29, COLON): 7.26 µM
- GI50 (SR; Homo sapiens): 2.34 µM
- GI50 (SN12C; Homo sapiens): 3.76 µM
- GI50 (HCT-116; Homo sapiens): 12.8 µM
- GI50 (NCI/ADRRES; Homo sapiens, NCI/ADR-RES): 12.8 µM
- GI50 (OVCAR-5; Homo sapiens): 11.1 µM
- GI50 (SK-MEL-5; Homo sapiens): 1.99 µM
- GI50 (435; Homo sapiens, 60 cell): 7.62 µM

Structure (SMILES): COc1cc(C(=O)OC(C(=O)NCCN2CCCC(Cl)C2)C2(C)CO2)c2cccc(C)c2c1 (stereo not drawn) [Compound 20]
- concentration at which crosslink formation starts ([1]; 1 h incubation): 0.1 µM
- EC50 ([1]; 1 h incubation, 37° C.): 3.1 µM
- EC50 ([1]; 2 h incubation): 2.7 µM
- EC50 ([1]; 3 h incubation): 2.2 µM
- GI50 (MOLT-4): 3 µM
- GI50 (HT29; COLON): 11 µM
- GI50 (SR): 2.02 µM
- GI50 (SN12C): 6.76 µM
- GI50 (HCT-116): 100 µM
- GI50 (NCI/ADRRES): 11.1 µM
- GI50 (OVCAR-5): 16.1 µM
- GI50 (SK-MEL-5): 1.56 µM
- GI50 435: 14.3 µM
